Experimental data from ChEMBL document CHEMBL1909046, “DrugMatrix in vitro pharmacology data”.

Key:
D(1A) dopamine receptor = D(1A) dopamine receptor (Homo sapiens, UniProt P21728); experiment: DRUGMATRIX: Dopamine D1 radioligand binding (ligand: [3H] SCH-23390); assay type: cell membranes, CHO, Membrane; conditions: cho; Not Active = under 50% inhibition at 10 µM
[1] = biological target: T1, C-X-C chemokine receptor type 1 (Homo sapiens, UniProt P25024); also: in other assays of this panel Not Active means under 50% inhibition at 10 µM
T1 sequence (P25024 whole entry): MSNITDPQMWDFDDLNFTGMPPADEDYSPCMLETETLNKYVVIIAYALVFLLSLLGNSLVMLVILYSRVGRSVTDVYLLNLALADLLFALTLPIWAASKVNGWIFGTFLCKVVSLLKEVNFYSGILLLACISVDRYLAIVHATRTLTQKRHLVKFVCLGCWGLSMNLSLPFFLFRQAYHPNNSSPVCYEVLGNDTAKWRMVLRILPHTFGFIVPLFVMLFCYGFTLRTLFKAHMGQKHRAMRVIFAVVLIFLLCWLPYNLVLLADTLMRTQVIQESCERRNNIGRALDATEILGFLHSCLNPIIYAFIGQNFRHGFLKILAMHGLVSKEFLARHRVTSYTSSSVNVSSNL

[2] = biological target: T2, C-X-C chemokine receptor type 2 (Homo sapiens, UniProt P25025); assay type: cell membranes, Membrane; conditions: cho-k1; also: in other assays of this panel Not Active means under 50% inhibition at 10 µM
T2 sequence (P25025 whole entry): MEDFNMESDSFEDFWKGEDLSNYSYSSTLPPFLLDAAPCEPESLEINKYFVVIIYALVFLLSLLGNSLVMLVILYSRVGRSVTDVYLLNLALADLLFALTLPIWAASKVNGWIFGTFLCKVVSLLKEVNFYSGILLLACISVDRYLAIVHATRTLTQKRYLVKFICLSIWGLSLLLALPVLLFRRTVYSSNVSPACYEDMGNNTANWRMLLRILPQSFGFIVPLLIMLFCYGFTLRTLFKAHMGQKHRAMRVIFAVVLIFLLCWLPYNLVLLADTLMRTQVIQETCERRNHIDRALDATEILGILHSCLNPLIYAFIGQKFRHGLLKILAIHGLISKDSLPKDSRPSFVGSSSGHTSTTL

[3] = biological target: T3, Alpha-2A adrenergic receptor (Homo sapiens, UniProt P08913); assay type: cell membranes, Sf9, Membrane; conditions: sf9; also: in other assays of this panel Not Active means under 50% inhibition at 10 µM
T3 sequence (P08913 whole entry): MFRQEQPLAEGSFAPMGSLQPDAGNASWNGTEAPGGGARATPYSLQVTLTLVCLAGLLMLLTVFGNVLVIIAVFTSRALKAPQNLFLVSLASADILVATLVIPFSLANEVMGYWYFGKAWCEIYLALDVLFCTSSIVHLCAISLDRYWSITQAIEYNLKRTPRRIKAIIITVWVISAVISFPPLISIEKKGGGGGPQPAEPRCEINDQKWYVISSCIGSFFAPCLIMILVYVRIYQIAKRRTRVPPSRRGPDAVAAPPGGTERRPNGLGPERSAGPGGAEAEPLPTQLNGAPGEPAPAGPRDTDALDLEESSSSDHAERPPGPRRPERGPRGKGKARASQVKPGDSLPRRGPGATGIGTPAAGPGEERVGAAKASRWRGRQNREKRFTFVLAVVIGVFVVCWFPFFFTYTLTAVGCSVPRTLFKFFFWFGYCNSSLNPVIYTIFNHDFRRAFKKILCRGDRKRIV

[4] = biological target: T4, 5-hydroxytryptamine receptor 2C (Homo sapiens, UniProt P28335); experiment: DRUGMATRIX: Serotonin (5-Hydroxytryptamine) 5-HT2C radioligand binding (ligand: [3H] Mesulergine); assay type: cell membranes, CHO-K1, Membrane; conditions: cho-k1; Not Active = under 50% inhibition at 10 µM
T4 sequence (P28335 whole entry): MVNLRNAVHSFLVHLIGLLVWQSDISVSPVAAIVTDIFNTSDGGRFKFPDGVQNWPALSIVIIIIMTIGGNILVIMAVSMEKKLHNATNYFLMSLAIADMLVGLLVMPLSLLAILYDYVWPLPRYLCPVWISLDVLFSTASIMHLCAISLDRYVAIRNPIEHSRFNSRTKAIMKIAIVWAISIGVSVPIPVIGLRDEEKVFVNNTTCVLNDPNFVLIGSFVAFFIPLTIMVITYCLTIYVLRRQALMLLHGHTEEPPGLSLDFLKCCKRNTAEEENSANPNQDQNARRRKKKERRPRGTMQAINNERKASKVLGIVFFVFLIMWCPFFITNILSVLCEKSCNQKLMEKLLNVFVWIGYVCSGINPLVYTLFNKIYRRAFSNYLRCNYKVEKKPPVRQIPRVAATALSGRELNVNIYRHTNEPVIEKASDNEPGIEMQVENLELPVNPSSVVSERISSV

[5] = biological target: T5, Cholecystokinin receptor type A (Homo sapiens, UniProt P32238); assay type: cell membranes, Membrane; conditions: 1321-n1; also: in other assays of this panel Not Active means under 50% inhibition at 10 µM
T5 sequence (P32238 whole entry): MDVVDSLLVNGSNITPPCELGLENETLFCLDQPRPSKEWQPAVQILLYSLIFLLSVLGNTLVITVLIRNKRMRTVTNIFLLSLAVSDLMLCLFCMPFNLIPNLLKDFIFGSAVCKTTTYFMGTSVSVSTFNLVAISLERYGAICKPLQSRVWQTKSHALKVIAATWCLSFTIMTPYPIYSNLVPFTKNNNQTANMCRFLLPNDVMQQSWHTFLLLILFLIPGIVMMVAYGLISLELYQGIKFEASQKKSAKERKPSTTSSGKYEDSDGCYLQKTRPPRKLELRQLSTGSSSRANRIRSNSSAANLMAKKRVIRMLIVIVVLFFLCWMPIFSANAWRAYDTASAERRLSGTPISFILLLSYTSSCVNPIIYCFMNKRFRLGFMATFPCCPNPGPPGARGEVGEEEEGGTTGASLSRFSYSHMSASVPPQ

Measured: IC50

D(1A) dopamine receptor, sequence (P21728 whole entry): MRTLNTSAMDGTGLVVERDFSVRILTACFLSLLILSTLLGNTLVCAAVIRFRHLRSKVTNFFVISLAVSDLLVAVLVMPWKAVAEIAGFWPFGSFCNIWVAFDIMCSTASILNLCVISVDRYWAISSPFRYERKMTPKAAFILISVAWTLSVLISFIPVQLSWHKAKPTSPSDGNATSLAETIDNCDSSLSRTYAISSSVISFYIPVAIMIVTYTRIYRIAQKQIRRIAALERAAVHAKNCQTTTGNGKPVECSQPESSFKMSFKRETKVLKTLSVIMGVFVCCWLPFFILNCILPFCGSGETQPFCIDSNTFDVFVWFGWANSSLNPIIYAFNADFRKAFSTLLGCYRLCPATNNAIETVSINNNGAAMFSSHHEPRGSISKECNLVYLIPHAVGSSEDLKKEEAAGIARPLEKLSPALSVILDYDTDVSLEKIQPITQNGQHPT

CO[C@@]1(NC(=O)CSCC#N)C(=O)N2C(C(=O)O)=C(CSc3nnnn3C)CS[C@@H]21 [CEFMETAZOLE]
Not Active: all assays above

CN(C(=O)CCCOc1ccc2[nH]c(=O)ccc2c1)C1CCCCC1 [CILOSTAMIDE]
Not Active: all assays above

CC(C)(Oc1ccc(C2CC2(Cl)Cl)cc1)C(=O)O (stereo not given) [CIPROFIBRATE]
Not Active: all assays above

Nc1nc(Cl)nc2c1ncn2[C@H]1C[C@H](O)[C@@H](CO)O1 [CLADRIBINE]
Not Active: all assays above

CC[C@H]1OC(=O)[C@H](C)[C@@H](O[C@H]2C[C@@](C)(OC)[C@@H](O)[C@H](C)O2)[C@H](C)[C@@H](O[C@@H]2O[C@H](C)C[C@H](N(C)C)[C@H]2O)[C@](C)(OC)C[C@@H](C)C(=O)[C@H](C)[C@@H](O)[C@]1(C)O [CLARITHROMYCIN]
Not Active: all assays above

CCC[C@@H]1C[C@@H](C(=O)N[C@@H]([C@H]2O[C@H](SC)[C@H](O)[C@@H](O)[C@H]2O)[C@H](C)Cl)N(C)C1 [CLINDAMYCIN]
Not Active: all assays above

O=C(O)c1cc(=O)c2c(OCC(O)COc3cccc4oc(C(=O)O)cc(=O)c34)cccc2o1 [CROMOLYN]
Not Active: all assays above

O=P1(N(CCCl)CCCl)NCCCO1 (stereo not given) [CYCLOPHOSPHAMIDE ANHYDROUS]
Not Active: all assays above

CC(=O)O[C@]1(C(C)=O)CC[C@H]2[C@@H]3C=C(Cl)C4=CC(=O)[C@@H]5C[C@@H]5[C@]4(C)[C@H]3CC[C@@]21C [CYPROTERONE ACETATE]
Not Active: all assays above

Nc1nc(N)nc(NC2CC2)n1 [CYROMAZINE]
Not Active: all assays above

CCN[C@@H](C)Cc1cccc(C(F)(F)F)c1 [DEXFENFLURAMINE]
Not Active: all assays above

C[C@H](C(=O)O)c1cccc(C(=O)c2ccccc2)c1 [DEXKETOPROFEN]
Not Active: all assays above

CN1C(=O)CN=C(c2ccccc2)c2cc(Cl)ccc21 [DIAZEPAM]
Not Active: all assays above

Cc1c(N(C)CS(=O)(=O)[O-])c(=O)n(-c2ccccc2)n1C.[Na+] [DIPYRONE SODIUM]
Not Active: all assays above

CC(CCc1ccc(O)cc1)NCCc1ccc(O)c(O)c1 (stereo not given) [DOBUTAMINE]
Not Active: all assays above

CCn1cc(C(=O)O)c(=O)c2cc(F)c(N3CCNCC3)nc21 [ENOXACIN]
Not Active: all assays above

CCC(=O)O[C@H]1[C@H](O[C@@H]2[C@@H](C)[C@H](O[C@H]3C[C@@](C)(OC)[C@@H](O)[C@H](C)O3)[C@@H](C)C(=O)O[C@H](CC)[C@@](C)(O)[C@H](O)[C@@H](C)C(=O)[C@H](C)C[C@@]2(C)O)O[C@H](C)C[C@@H]1N(C)C [ERYTHROMYCIN PROPIONATE]
Not Active: all assays above

C=C(CC)C(=O)c1ccc(OCC(=O)O)c(Cl)c1Cl [ETHACRYNIC ACID]
Not Active: all assays above

C#C[C@]1(O)CC[C@H]2[C@@H]3CCc4cc(O)ccc4[C@H]3CC[C@@]21C [ETHINYL ESTRADIOL]
Not Active: all assays above

OCCO [ETHYLENE GLYCOL]
Not Active: all assays above

CC(=O)OCC(CCn1cnc2cnc(N)nc21)COC(C)=O [FAMCICLOVIR]
Not Active: all assays above

O=C(O)Cc1ccc(-c2ccccc2)cc1 [FELBINAC]
Not Active: all assays above

CCOC(=O)C1=C(C)NC(C)=C(C(=O)OC)C1c1cccc(Cl)c1Cl (stereo not given) [FELODIPINE]
Not Active: all assays above

CC(C(=O)O)c1ccc(-c2ccccc2)c(F)c1 (stereo not given) [FLURBIPROFEN]
Not Active: all assays above

Cc1cn[nH]c1 [FOMEPIZOLE]
Not Active: all assays above
